Several values for one entry are separate records, joined by “and”; a condition that tells them apart may be missing. Equal values may be shown once.
Legend:
Assay type in all cases: biochemical, Aloe barbadensis
[1] = tested on: AbCGT; test: Effects of pH, temperature and divalent metal ions on AbCGT activity (phloretin 17 + UDP-Glc); settings: for relative activity / conversion rates of Phloretin: in presence of the divalent cation or EDTA; for relative activity: relative to CK; for effect of divalent metal ion on catalytic activity of AbCGT (in words): 5 mM, phloretin (17) + UDP-Glc, 10 min
Protocol: To assay for the optimal reaction temperature, the reaction mixtures were incubated at pH 11.0 and different temperatures (15–60 °C). To test the necessity of divalent metal ions for AbCGT, BaCl2, CaCl2, CoCl2, CuCl2, FeCl2, MgCl2, MnCl2, ZnCl2, and EDTA were used individually at a final concentration of 5 mM. […] For quantification, three parallel assays were routinely carried out.

[2] = target: T1, AbCGT V183D (Aloe vera, UniProt A0A7G9P699, V183D); test: Glycosyltransferase activity of AbCGT variant V183D
T1 sequence (A0A7G9P699 1-470 V183D): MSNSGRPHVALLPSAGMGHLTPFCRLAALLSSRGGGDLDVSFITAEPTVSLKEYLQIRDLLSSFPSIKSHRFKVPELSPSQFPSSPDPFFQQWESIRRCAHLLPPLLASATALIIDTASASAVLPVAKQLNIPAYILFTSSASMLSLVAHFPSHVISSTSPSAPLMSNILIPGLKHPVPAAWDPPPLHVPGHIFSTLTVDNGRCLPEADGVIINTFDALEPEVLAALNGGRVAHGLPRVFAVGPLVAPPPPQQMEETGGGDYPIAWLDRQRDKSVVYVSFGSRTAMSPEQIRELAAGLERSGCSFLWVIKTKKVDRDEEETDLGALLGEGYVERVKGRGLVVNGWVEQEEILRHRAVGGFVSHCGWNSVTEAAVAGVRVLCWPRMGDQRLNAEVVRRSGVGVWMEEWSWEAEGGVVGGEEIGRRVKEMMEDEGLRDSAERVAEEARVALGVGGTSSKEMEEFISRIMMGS
Protocol: (§1) The reaction mixture contained 0.5 mM sugar donors (1.0 mM for di-glycosylation), 0.25 mM aglycons, 50 mM Tris-HCl (pH 7.4), and 50‒100 μg of purified AbCGT in a final volume of 100 μL. Due to the instability of some acceptors in the buffer of pH 11.0, the reactions were performed under the physiological conditions (pH 7.4, 30 °C) to compare the catalytic activities of AbGT27 with different substrates under the same conditions. The reactions were performed at 30 °C for up to 12 h and terminated by the addition of 200 μL of ice-cold methanol. Subsequently, samples were centrifuged at 15,000 × g for 30 min to collect the supernatant, and aliquots were analyzed by HPLC-UV/ESIMS. HPLC analysis was performed on a Shiseido CAPCELL PAK C18 MG III column (250 mm × 4.6 mm I.D., 5 μm, Shiseido Co., Ltd., Japan) at a flow rate of 1 mL min^‒1. The mobile phase was a gradient elution of solvents A (0.1% formic acid aqueous solution) and B (methanol). The gradient programs were used for the analysis of the reactions (Supplementary Table 6). The conversion rates of the enzyme reactions were calculated from peak areas of glycosylated products and substrates as analyzed by HPLC. To facilitate inferential statistical analysis, three parallel assays were routinely performed; the means ± SD from triplicate analyses are reported here.
Site-saturation mutagenesis of AbCGT at residue 183 was performed by PCR using pET28a-AbCGT as a template and the corresponding degenerate primers, which are listed in Supplementary Table 5. PCR products were purified and transformed into Trans1-T1 (DE3) E. coli. The sequences of pET28a-AbCGT mutants were confirmed by sequencing, and transformed into Transetta (DE3) E. coli for heterologous expression following protein purification.

[3] = target: AbCGT (Aloe vera, UniProt A0A7G9P699); test: Glycosyltransferase activity assay, purified AbCGT (wild type) with aglycon acceptors and UDP-Glc; settings: for conversion rates, O,N,S-glycosylation / conversion rates, di-C-glycosylation / conversion rates, mono-C-glycosylation: aglycon acceptor with UDP-Glc, pH 7.4, 30 °C, up to 12 h, Reaction-1 to -3
Chain of AbCGT (Aloe vera, UniProt A0A7G9P699) (A0A7G9P699 entry or part of it): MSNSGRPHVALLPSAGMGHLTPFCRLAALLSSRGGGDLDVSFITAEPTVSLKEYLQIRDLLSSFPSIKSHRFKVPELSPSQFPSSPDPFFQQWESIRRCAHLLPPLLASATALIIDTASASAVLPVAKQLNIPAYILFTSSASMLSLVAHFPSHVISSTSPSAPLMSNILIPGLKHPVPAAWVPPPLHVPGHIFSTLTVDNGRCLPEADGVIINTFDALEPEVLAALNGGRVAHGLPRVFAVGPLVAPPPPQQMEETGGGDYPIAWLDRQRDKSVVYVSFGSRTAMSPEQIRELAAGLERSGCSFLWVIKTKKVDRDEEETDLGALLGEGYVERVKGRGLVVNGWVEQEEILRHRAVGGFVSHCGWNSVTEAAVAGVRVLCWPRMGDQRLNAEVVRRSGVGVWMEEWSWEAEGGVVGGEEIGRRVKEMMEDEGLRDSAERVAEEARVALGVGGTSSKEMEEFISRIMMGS
Protocol: as §1, with “Due” for “The reaction mixture contained 0.5 mM sugar donors (1.0 mM for di-glycosylation), 0.25 mM aglycons, 50 mM Tris-HCl (pH 7.4), and 50‒100 μg of purified AbCGT in a final volume of 100 μL. Due”, “HPLC analysis was performed on a Shiseido CAPCELL PAK C18 MG III column (250 mm × 4.6 mm I.D., 5 μm, Shiseido Co., Ltd., Japan) at a flow rate of 1 mL min^‒1. The mobile phase was a gradient elution of solvents A (0.1% formic acid aqueous solution) and B (methanol).” left out

conversion rates, O,N,S-glycosylation [3] | conversion rates, di-C-glycosylation [3] | conversion rates, mono-C-glycosylation [3] | Compound | relative activity ([1]; reaction-1) | relative activity ([1]; reaction-2) | relative activity ([1]; reaction-3) | conversion rates of Phloretin ([1]; reaction-1) | conversion rates of Phloretin ([1]; reaction-2) | conversion rates of Phloretin ([1]; reaction-3) | also measured
 |  |  | [Ba+2].[Cl-].[Cl-] [Ba2+] | 119.8 | 122.9 | 119.3 | 62 | 63.6 | 61.7 | 
 |  |  | [Ba+2].[Cl-].[Cl-] [Ba^2+] |  |  |  |  |  |  | effect of divalent metal ion on catalytic activity of AbCGT (in words) [1]: greatly enhanced the catalytic activity of AbCGT
 |  |  | [Ca+2].[Cl-].[Cl-] [Ca2+] | 149.8 | 161.0 | 139.4 | 77.5 | 83.3 | 72.1 | 
 |  |  | [Ca+2].[Cl-].[Cl-] [Ca^2+] |  |  |  |  |  |  | effect of divalent metal ion on catalytic activity of AbCGT (in words) [1]: greatly enhanced the catalytic activity of AbCGT
 |  |  | [Co+2] [Co2+] | 36.5 | 41.0 | 43.9 | 18.9 | 21.2 | 22.7 | 
0% | 0% | 86.7% and 87.5% and 90.2% | Cc1cc(O)cc(O)c1C=O [Compound 8] |  |  |  |  |  |  | 
0% | 0% | 45.2% and 41.8% and 43% | CC(=O)c1c(C)cc(O)cc1O [Compound 9] |  |  |  |  |  |  | 
0% | 100% | 0% | O=Cc1c(O)cc(O)cc1O [Compound 10] |  |  |  |  |  |  | 
0% | 0% | 100% | CC(=O)c1c(O)cc(O)c(C(C)=O)c1O [Compound 12] |  |  |  |  |  |  | 
0% | 0% | 0% | COc1cc(OC)c(C(C)=O)c(OC)c1 [Compound 15] |  |  |  |  |  |  | 
0% | 100% | 0% | CCCCC(=O)c1c(O)cc(O)cc1O [Compound 16] |  |  |  |  |  |  | 
0% | 93.8% and 92% and 91.6% | 3.2% and 4.7% and 4% | O=C(OCCCc1ccccc1)c1c(O)cc(O)cc1O [Compound 18] |  |  |  |  |  |  | 
0% | 63% and 63.5% and 65.1% | 37% and 36.5% and 34.9% | O=C(c1ccc(O)c(O)c1)c1c(O)cc(O)cc1O [Compound 19] |  |  |  |  |  |  | 
90% and 92% and 94.8% | 0% | 0% | Cc1cc(=O)oc2cc(O)ccc12 [Compound 24, 7-hydroxy-4-methylcoumarin] |  |  |  |  |  |  | 
87% and 86% and 85.3% | 0% | 0% | Cc1cc(=O)oc2cc(S)ccc12 [Compound 25, 7-mercapto-4-methylcoumarin] |  |  |  |  |  |  | 
 |  |  | [Cu+2] [Cu2+] | 0.0 | 0.0 | 0.0 | 0 | 0 | 0 | 
 |  |  | O=C(O)CN(CCN(CC(=O)O)CC(=O)O)CC(=O)O [EDTA] | 89.5 | 90.9 | 102.3 | 46.3 | 47 | 52.9 | 
 |  |  | [Fe+2] [Fe2+] | 23.0 | 24.7 | 18.0 | 11.9 | 12.8 | 9.3 | 
 |  |  | [Cl-].[Cl-].[Mg+2] [Mg2+] | 157.2 | 160.4 | 167.6 | 81.3 | 83 | 86.7 | 
 |  |  | [Cl-].[Cl-].[Mg+2] [Mg^2+] |  |  |  |  |  |  | effect of divalent metal ion on catalytic activity of AbCGT (in words) [1]: greatly enhanced the catalytic activity of AbCGT
 |  |  | [Cl][Mn][Cl] [Mn2+] | 162.4 | 178.6 | 171.3 | 84 | 92.4 | 88.6 | 
 |  |  | [Cl][Mn][Cl] [Mn^2+] |  |  |  |  |  |  | effect of divalent metal ion on catalytic activity of AbCGT (in words) [1]: greatly enhanced the catalytic activity of AbCGT
 |  |  | [Ni+2] [Ni2+] | 13.7 | 12.0 | 15.5 | 7.1 | 6.2 | 8 | 
 |  |  | [Zn+2] [Zn2+] | 1.9 | 3.9 | 1.9 | 1 | 2 | 1 | 

Compound | conversion rates, O,N,S-glycosylation [3] | conversion rates, di-C-glycosylation [3] | conversion rates, mono-C-glycosylation [3] | relative activity ([1]; reaction-1) | relative activity ([1]; reaction-2) | relative activity ([1]; reaction-3) | conversion rates of Phloretin ([1]; reaction-1) | conversion rates of Phloretin ([1]; reaction-2) | conversion rates of Phloretin ([1]; reaction-3) | also measured
CC(=O)c1ccccc1O [Compound 1] | 30.2% and 31% and 32.1% | 0% | 0% |  |  |  |  |  |  | V183D/yield of C-glycoside(%) ([2]; reaction-1): 0%; V183D/yield of O-glycoside(%) ([2]; reaction-1): 0%; V183D/yield of C-glycoside(%) ([2]; reaction-2): 0%; V183D/yield of O-glycoside(%) ([2]; reaction-2): 0%; V183D/yield of C-glycoside(%) ([2]; reaction-3): 0%; V183D/yield of O-glycoside(%) ([2]; reaction-3): 0%; WT/yield of C-glycoside(%) ([3]; reaction-1): 0%; WT/yield of O-glycoside(%) ([3]; reaction-1): 32.8%; WT/yield of C-glycoside(%) ([3]; reaction-2): 0%; WT/yield of O-glycoside(%) ([3]; reaction-2): 33.5%; WT/yield of C-glycoside(%) ([3]; reaction-3): 0%; WT/yield of O-glycoside(%) ([3]; reaction-3): 28.2%

From PMC7558026, “Exploring and applying the substrate promiscuity of a C-glycosyltransferase in the chemo-enzymatic synthesis of bioactive C-glycosides” (Nature Communications, 2020)
